Data published in the NIST ThermoML archive (doi:10.1016/j.jct.2012.11.007).

Assay: mn = molality of the nth substance listed, in mol/kg
Conditions: 101 kPa, Liquid; for mass density: Vibrating tube method; for speed of sound: Pulse-echo method

CCNC(=O)NCC [1,3-diethylurea] + O
Conditions	mass density, 288.15 K [kg/m3]	mass density, 293.15 K [kg/m3]	mass density, 298.15 K [kg/m3]	mass density, 303.15 K [kg/m3]	mass density, 308.15 K [kg/m3]	speed of sound, 298.15 K [m/s]
m1 = 0.06282	999.298	998.383	997.207	995.788	994.155	1501.8
m1 = 0.1269	999.524	998.589	997.392	995.959	994.306	1507
m1 = 0.1909	999.768	998.812	997.588	996.14	994.468	1512.1
m1 = 0.2561	1000.03	999.043	997.793	996.313	994.634	1517.2
m1 = 0.3224	1000.31	999.289	998.012	996.517	994.82	1522.3

CNC(=O)NC [1,3-dimethylurea] + O
Conditions	mass density, 288.15 K [kg/m3]	mass density, 293.15 K [kg/m3]	mass density, 298.15 K [kg/m3]	mass density, 303.15 K [kg/m3]	mass density, 308.15 K [kg/m3]	speed of sound, 298.15 K [m/s]
m1 = 0.06095	999.619	998.707	997.534	996.121	994.493	1499.8
m1 = 0.1226	1000.15	999.227	998.04	996.616	994.975	1503
m1 = 0.1846	1000.69	999.75	998.549	997.113	995.461	1506.1
m1 = 0.247	1001.24	1000.28	999.063	997.613	995.947	1509.2
m1 = 0.3099	1001.79	1000.82	999.585	998.121	996.442	1512.3

CCCCNC(N)=O [N-butylurea] + O
Conditions	mass density, 288.15 K [kg/m3]	mass density, 293.15 K [kg/m3]	mass density, 298.15 K [kg/m3]	mass density, 303.15 K [kg/m3]	mass density, 308.15 K [kg/m3]	speed of sound, 298.15 K [m/s]
m1 = 0.05745	999.477	998.55	997.366	995.939	994.3	1501.5
m1 = 0.1154	999.871	998.918	997.706	996.251	994.591	1506.3
m1 = 0.173	1000.27	999.281	998.053	996.57	994.872	1511.2
m1 = 0.2305	1000.68	999.67	998.404	996.892	995.175	1516
m1 = 0.2873	1001.11	1000.06	998.771	997.219	995.477	1520.9

CCNC(N)=O [ethylurea] + O
Conditions	mass density, 288.15 K [kg/m3]	mass density, 293.15 K [kg/m3]	mass density, 298.15 K [kg/m3]	mass density, 303.15 K [kg/m3]	mass density, 308.15 K [kg/m3]	speed of sound, 298.15 K [m/s]
m1 = 0.06285	999.725	998.807	997.629	996.213	994.58	1500
m1 = 0.1203	1000.29	999.358	998.163	996.73	995.083	1503.1
m1 = 0.179	1000.88	999.919	998.707	997.258	995.602	1506.2
m1 = 0.2358	1001.44	1000.47	999.234	997.769	996.09	1509.1
m1 = 0.3016	1002.09	1001.09	999.839	998.357	996.661	1512.5

CNC(N)=O [methylurea] + O
Conditions	mass density, 288.15 K [kg/m3]	mass density, 293.15 K [kg/m3]	mass density, 298.15 K [kg/m3]	mass density, 303.15 K [kg/m3]	mass density, 308.15 K [kg/m3]	speed of sound, 298.15 K [m/s]
m1 = 0.06094	999.856	998.94	997.762	996.348	994.718	1499.1
m1 = 0.1225	1000.62	999.688	998.491	997.062	995.418	1501.5
m1 = 0.1837	1001.38	1000.42	999.21	997.766	996.108	1503.9
m1 = 0.2452	1002.13	1001.16	999.928	998.469	996.799	1506.3
m1 = 0.3076	1002.89	1001.9	1000.66	999.182	997.498	1508.7

NC(N)=O [urea] + O
Conditions	mass density, 288.15 K [kg/m3]	mass density, 293.15 K [kg/m3]	mass density, 298.15 K [kg/m3]	mass density, 303.15 K [kg/m3]	mass density, 308.15 K [kg/m3]	speed of sound, 298.15 K [m/s]
m1 = 0.06521	1000.18	999.268	998.076	996.664	995.029	1498.5
m1 = 0.1233	1001.14	1000.2	998.994	997.564	995.915	1500
m1 = 0.1812	1002.09	1001.13	999.906	998.455	996.792	1501.5
m1 = 0.2403	1003.05	1002.07	1000.83	999.361	997.684	1503.1
m1 = 0.3004	1004.03	1003.02	1001.76	1000.28	998.584	1504.6
